From publication PMC12851007 (Angewandte Chemie (International Ed. in English), 2025)
Where a SMILES comes first, the peptide text is derived from it.

Experiments:
[1] = CX4/LCG supramolecular tandem membrane assay, POPC vesicles; assay type: in vitro ADME; settings: n = 1; for Y30µM, membrane activity, CX4/LCG assay: 30 µM peptide, 25 µM POPC⸧CX4/LCG-LUVs (inside 700 µM CX4, 500 µM LCG) in 10 mM Hepes, pH 7.0, 25 °C, fluorescence λexc 369/λem 502 nm, peptide at 60 s, TX-100/protamine at 600 s, fractional activity; for EC50: pH 7.5, error = SD of fit
Experimental: Membrane Activity M easurements
Vesicle preparation. 100 µ L of a solution of 25 mg/ml of POPC in chloroform or 200 µ L of a solution of 25 mg/ml of EYPC in chloroform was purged with nitrogen and dried overnight under hi gh vacuum. The thin lipid film was rehydrated with 1 ml reh ydrati on buffer (= inside buffer, see Tabl e S2 ) b y agitation at room temperature for 30min and then subjected to 2 0 freeze- th aw c ycles (freezing in liquid nitro gen and thawing at 40 °C). […]
Ta b l e S 2. Combinations of lipids and inside and outside buffer for CX4/LCG -LUVs.
No. Lipid Inside buffer = rehydration buffer Outside buffer
(4) POPC 10 mM Hepes, 700 µM CX4, 500 µM LCG, 10 mM Hepes buffer, 175 mM glucose, pH 7.5 [a] 175 mM glucose, pH 7.5 [a]
[a] Glucose b uffers (183 mOsm/L at 25 °C) were used within one week after preparation.
Vesicle quality control. T o ensure the absence of the CX4/ LCG reporter pair in the ex travesicular ph ase, 20 µL of the collected liposome fr action w as diluted to 2 ml with outside buffer and the fluor escen ce (λ exc = 369 nm; λ em = 502 nm) was recorded during the addition of […]
The final lipid content in the liposome suspension after p repa rat ion and separ ation was d etermined b y NMR as p reviousl y reported. Assay protocol. An appropriate volume of the liposome stock solutions was diluted to 2m L with outside buffer in a 10 ×10 mm quartz glass cuvette to afford a phospholipid concentration of 25 µM. The cuvette was placed into a thermostatted fluorimeter sample holder at 25.0 °C and gentl y stirred at 300 rpm. Subsequently, the time-dependent change in fluorescence intensity (λ exc = 369 nm; λ em = 502 nm) was record ed during addition of 20 µ L of peptide stock solutions of varying concentrations at 60 s. At 600 s, 20µ L o f a solution containing 1.6% (wt/vol) TX-100 and 1.5 mM protamine was added for calibration to affo rd 0.016% (wt/vol) TX-100 and 15 µM protamine final concent rations.
Time-dep endent fluores cence intensit y traces, I (t), were subsequentl y normalized to fractional intensities, If(t), using equation (1). Therein, I 0 is the intensity just before addition of peptide and I ∞ is the constant intensit y after addition of the calibration cockt ail.
IIf (tt ) = II (tt )−II0II∞ − II0 (1)
The concentration-dependent fractional intensities just before the addition of the calibration cocktail, If, were then normalized to fractional membrane activities, Y, using equation (2).
Therein, If,0 is the fractional intensit y just before addition of the calibration cocktail in absence of peptide and I f,∞ is the constant fractional intensity after addition of the calibration cocktail.
YY = IIf − IIf,0IIf,∞ − IIf,0 (2)
The fractional membrane activities, Y, were subsequently plotted against the peptide concentration, c, and analysed using the Hill equation (3) to obtain the effective molar concentration, EC50, and the Hill coefficient, n. Y0 and Y ma x are the fractional membrane activities in absen ce o f p eptide and at max imal peptide concent rations. For peptides with too little activity to determine Y ma x ex perimentall y, Y max was fixed at 1.0 during fitting. […]

[2] = Dual-channel assay, CF channel, POPC/POPS vesicles; assay type: biochemical; settings: 12.5 µM POPC/POPS(9:1)⸧CX4/LCG-LUVs and 12.5 µM POPC/POPS(9:1)⸧CF-LUVs in 10 mM Hepes, 175 mM glucose, pH 7.5; error = SD of fit, n = 1
Excerpt: Ultimately, we have also tested the new conditions with vesicles containing the anionic lipid 1‐palmitoyl‐2‐oleoyl‐phosphatidylserine (POPS) with TP10, Pep‐1, and the LRLLRW peptide (Figures S41–S43 and Table S11). The results confirmed that the absolute activity as well as the difference between the CF dye efflux assay and the tandem membrane assay was nearly unaffected by the presence of 10% POPS with the only exception that the membrane‐translocating ability of TP10 was enhanced.
Assay protocol. An appropriate volume of the liposome stock solutions was diluted to 2 mL with outside buffer in a 10 ×10 mm quartz glass cuvette to afford a phospholipid concentration of 25 µM. The cuvette was placed into a thermostatted fluorimeter sample holder and gentl y stirred at 300 rpm at (25.0± 0.1) °C. Subsequentl y, the time-dependent change in fluorescence intensity (C F: λ exc = 492 nm, λ em = 517 nm) was recorded during addition of 20 µL peptide stock solution of var ying concentrations at 60 s and 20µ L of a calibration cocktail (1. 6% […]
Time-dep endent fluores cence intensit y traces, I (t), were subsequentl y normalized to fractional intensities, If(t), using equation (1) and the concentration- dependent fractional intensities just before the addition of th e calibration co cktail, I f, w ere then normaliz ed to fr actional membran e activities, Y, using equation (2). […]
Vesicles w ere prep ared a s described abov e (se e en try (4) in Table S2 and entry (3) in Table S3) and eluted with freshl y prepared 10 mM Hepes, 175mM glucos e, pH 7.5 i n the size exclusion chromatograph y. […] The fluorescence intensity w as simultaneous l y r eco rded in the CF chann el ( λ exc = 525 nm, λ em = 545 nm) and in the LCG channel ( λ exc = 369 nm, λ em = 475 nm) with an ex citation slit width of 5 nm and an emission slit width of 5 n m during addition of 20 µL peptide stock solution of varying concentrations at 60 s and 20 µL of a calibration

[3] = single-channel, 25 µM POPC⸧CX4/LCG-LUVs, inside 10 mM Hepes, 700 µM CX4, 500 µM LCG, 175 mM glucose, outside 10 mM Hepes, 175 mM glucose, read-out: EC50, CX4/LCG assay in glucose-containing buffer
[4] = 25 µM lipid, POPC⊃CX4/LCG-LUVs, 10 mM Hepes, fractional activity at 590 s, Hill fit, read-out: EC50, CX4/LCG assay, POPC

Row | SMILES | Y30µM, membrane activity, CX4/LCG assay [1] | EC50 [1, 3] | EC50 [2] | EC50 [1, 4]
1 | CC(C)C[C@H](NC(=O)[C@H](CC(C)C)NC(=O)[C@H](CCCNC(=N)N)NC(=O)[C@@H](N)CC(C)C)C(=O)N[C@@H](CCCNC(=N)N)C(=O)N[C@@H](Cc1c[nH]c2ccccc12)C(N)=O [LRLLRW] (H-LRLLRW-NH2) | 0.53 | 14 ± 2 µM | 28 ± 10 µM | 
2 | CC(C)[C@H](NC(=O)[C@H](CCCCN)NC(=O)[C@H](CCCNC(=N)N)NC(=O)[C@H](CCCCN)NC(=O)[C@H](CCCCN)NC(=O)[C@H](CCCCN)NC(=O)[C@@H]1CCCN1C(=O)[C@H](CCC(N)=O)NC(=O)[C@H](CO)NC(=O)[C@H](Cc1c[nH]c2ccccc12)NC(=O)[C@H](CC(=O)O)NC(=O)[C@@H](NC(=O)[C@H](Cc1c[nH]c2ccccc12)NC(=O)[C@H](Cc1c[nH]c2ccccc12)NC(=O)[C@@H](NC(=O)[C@H](CC(=O)O)NC(=O)[C@H](Cc1c[nH]c2ccccc12)NC(=O)[C@H](Cc1c[nH]c2ccccc12)NC(=O)[C@@H](NC(=O)[C@H](CC(=O)O)NC(=O)[C@@H](N)CCCCN)[C@@H](C)O)[C@@H](C)O)[C@@H](C)O)C(=O)O [Pep‐1] (H-KDTWWDTWWTDWSQPKKKRKV-OH) | 0.67 | 4.5 ± 0.7 µM | 698 ± 55 µM | 32 ± 14 µM
3 | CC[C@H](C)[C@H](NC(=O)[C@H](CCCCN)NC(=O)[C@H](CCCCN)NC(=O)[C@H](C)NC(=O)[C@H](CC(C)C)NC(=O)[C@H](C)NC(=O)[C@H](C)NC(=O)[C@H](CC(C)C)NC(=O)[C@H](C)NC(=O)[C@H](CCCCN)NC(=O)[C@H](CC(C)C)NC(=O)[C@H](CC(N)=O)NC(=O)[C@@H](NC(=O)[C@H](CCCCN)NC(=O)CNC(=O)[C@H](CC(C)C)NC(=O)[C@H](CC(C)C)NC(=O)[C@H](Cc1ccc(O)cc1)NC(=O)CNC(=O)[C@H](C)N)[C@@H](C)CC)C(=O)N[C@@H](CC(C)C)C(=O)O [TP10] | 0.88 | 1.7 ± 0.6 µM | 0.027 ± 0.002 µM | 
4 | CC[C@H](C)[C@H](NC(=O)[C@H](CCCCN)NC(=O)[C@@H](NC(=O)[C@@H](N)CCC(N)=O)[C@@H](C)CC)C(=O)N[C@@H](Cc1c[nH]c2ccccc12)C(=O)N[C@@H](Cc1ccccc1)C(=O)N[C@@H](CCC(N)=O)C(=O)N[C@@H](CC(N)=O)C(=O)N[C@@H](CCCNC(=N)N)C(=O)N[C@@H](CCCNC(=N)N)C(=O)N[C@@H](CCSC)C(=O)N[C@@H](CCCCN)C(=O)N[C@@H](Cc1c[nH]c2ccccc12)C(=O)N[C@@H](CCCCN)C(=O)N[C@@H](CCCCN)C(=O)O (H-QIKIWFQNRRMKWKK-OH) | 0.49 | 140 ± 40 µM |  | 70 ± 13 µM
